Measurements reported in PMC7357788, “Overlapping functions and protein-protein interactions of LRR-extensins in Arabidopsis” (PLoS Genetics, 2020).
Entries after “also recorded” stand apart in the source; their conditions may differ.

Key:
[1] = target: LRX1 (LRX1^ΔE-FLAG); assay: BLITZ (biolayer interferometry) RALF1-LRX1 binding; design: species or system Arabidopsis thaliana; conditions: purified LRX^ΔE expressed in N. benthamiana, synthetic RALF1 peptide, association 120 s, dissociation 120 s
Experimental: (§1) The kinetics of the interaction of LRX proteins with RALF1 were tested with Biolayer Interferometry (BLITZ). The LRX^ΔE-FLAG proteins of LRX1, LRX3, LRX4, and LRX5 used for this experiment were expressed transiently in tobacco. […] For RALF1, in vitro synthesized peptide was used. […] While the LRX^ΔE-FLAG had to be soluble in order to get purified prior to application on the sensor (for details, see Materials and Methods), it cannot be completely ruled out that LRX3^ΔE-FLAG has a reduced solubility in this experiment that would provide an alternative explanation for the observed high Kd.
(§2) The BLITZ experiments were performed as previously described. The LRR^ΔE–FLAG versions of the different LRXs were expressed using the 35S promoter in N. benthamiana, presence of proteins was checked by immunoblotting, and proteins were immune-precipitated as described above. […] Protein concentration was determined by Qubit measurement (Quant-iTTM Protein Assay kit, Invitrogen). […] Different RALF synthetic peptide (PHTD peptides) concentrations (200 μM, 150 μM, 100 μM, 50 μM, 20 μM, 15 μM, 10 μM, 4 μM, 2 μM and 0.2 μM) were added to quantify the protein interaction.
(§3) Supplementary file pgen.1008847.s004.pdf: S4 Fig BLITZ output data. […] Association/dissociation or RALF1 depends on the concentration of applied RALF1, based on which the Kd is calculated. […]

[2] = tested on: LRX3 (LRX3^ΔE-FLAG); assay: BLITZ (biolayer interferometry) RALF1-LRX3 binding; design: species or system Arabidopsis thaliana; conditions: compared with LRX1, LRX4, and LRX5
Experimental: as §1, §2

[3] = target: LRX4 (LRX4^ΔE-FLAG); assay: BLITZ (biolayer interferometry) RALF1-LRX4 binding; design: species or system Arabidopsis thaliana; conditions: purified LRX^ΔE expressed in N. benthamiana, synthetic RALF1 peptide, association 120 s, dissociation 120 s
Experimental: as §1, §2, §3

[4] = target: LRX5 (LRX5^ΔE-FLAG); assay: BLITZ (biolayer interferometry) RALF1-LRX5 binding; design: species or system Arabidopsis thaliana; conditions: purified LRX^ΔE expressed in N. benthamiana, synthetic RALF1 peptide, association 120 s, dissociation 120 s
Experimental: as §1, §2

[5] = tested on: LRX1^ΔE; assay: Co-IP of LRX1^ΔE-HA with RALF1-FLAG; format: binding, Arabidopsis thaliana; conditions: Co-IP and immunoblotting, transient expression in N. benthamiana
Experimental: Here, we tested binding of RALF1 to LRX1.
(§4) For pulldown and Co-IP analysis of the different constructs indicated in the experiments DNA was infiltrated into Nicotiana benthamiana leaves, and after 48 hrs, the leaves were excised and ground in liquid nitrogen as described in [62]. Two hundred mg of tissue powder was re-suspended in 500 μL extraction buffer [200 mM Tris-HCl (pH 7.5), 150 mM NaCl, 1 mM PMSF, protease inhibitor and 0.5% Triton X-100]. The suspension was incubated on ice for 30 minutes and then centrifuged at 11,000 rpm for 20 minutes at 4°C. The supernatant (200 μL) was then incubated with 10 μL anti-HA (Thermo Scientific, 88837), or anti-FLAG magnetic beads overnight at 4°C on a rotating shaker. If RALF1 peptide was added, the peptide was diluted in such way that for every sample 1μL of peptide was added to the protein extracts. After incubation, the beads were washed five times with the wash buffer (extraction buffer containing 0.05% Triton X-100) and boiled in SDS-PAGE loading buffer for 15 minutes at 75°C. The immunoprecipitates were then run on an SDS-PAGE gel and transferred to nitrocellulose membrane to perform immunoblotting using the following antibodies: anti-FLAG M2 (Sigma-Aldrich, F3165), anti-GFP (Biolegend, 902601), anti-HA-HRP 3F10 (Roche, 12 013 819 001) and anti-mouse-HRP (Sigma Aldrich, A 4416). […]

[6] = tested on: LRX1; assay: Yeast-two-hybrid RALF1-LRX1; format: binding, Arabidopsis thaliana; conditions: Y2H, yeast strain PJ69-4A, growth on -Trp, Leu, His, Ade drop-out medium
Description: (§5) The BD-LRX4 and AD-FER^ECD constructs for the Yeast-two-hybrid experiment were cloned as previously described, where NtermFER equals AD-FER^ECD and LRR4 equals BD-LRX4. For the BD-LRX1/2/3/5 constructs, the coding sequence of the LRR domain of the LRXs was amplified using primers (S3 Table) to introduce a BamHI and a XhoI site at the 5’ and 3’ end of the PCR fragments, respectively. These were cloned into pJET1.2 (Thermo Scientific) and correct clones were cut with BamHI and XhoI and ligated into pGBKT7 cut with BamHI and SalI. The AD-RALF1 construct was cloned into pJET1.2 (Thermo Scientific) by amplification of the coding sequence with the primers y2h_RALF1_F and y2h_RALF1_R. A correct clone was cut with EcoRI and XmaI and ligated into pGADT7 cut with EcoRI and XmaI.
(§6) Transformation of the yeast strain PJ69-4A [63] was done following standard procedures and quadruple drop-out medium lacking Leu, Trp, His, and Ade were used to screen for positive interactions after 4 days incubation at 30°C. Three different colonies containing both vectors were mixed and plated in triplicates on quadruple drop-out medium.
(§7) Supplementary file pgen.1008847.s002.pdf: S2 Fig Interaction of LRX1 and RALF1 in yeast. The yeast strain PJ69-4A was transformed with pGADT7-RALF1 and pGBKT7-LRR1 or pGBKT7-LRR4, and with either of the constructs with empty plasmids for the negative controls. […]

[7] = tested on: LRX4; assay: Yeast-two-hybrid RALF1-LRX4; format: binding, Arabidopsis thaliana; conditions: Y2H, yeast strain PJ69-4A, growth on -Trp, Leu, His, Ade drop-out medium
Description: as §5, §6, §7

[8] = tested on: LRX1^ΔE-FER^ECD interaction; assay: Co-IP: effect of added RALF1 on LRX1^ΔE-FER^ECD interaction; format: binding, Arabidopsis thaliana; conditions: synthetic RALF1 peptide 50, 100, 200, 1000 nM added to extracts
Description: In a next step, the dynamics of LRX-RALF1-FER interaction was investigated with a focus on LRX1. To this end, extracts used to show Co-IP of LRX1^ΔE and FER^ECD were supplemented with increasing concentrations of RALF1 peptide.
as §4, with “75°C.” for “75°C. The immunoprecipitates were then run on an SDS-PAGE gel and transferred to nitrocellulose membrane to perform immunoblotting using the following antibodies: anti-FLAG M2 (Sigma-Aldrich, F3165), anti-GFP (Biolegend, 902601), anti-HA-HRP 3F10 (Roche, 12 013 819 001) and anti-mouse-HRP (Sigma Aldrich, A 4416).”

[9] = tested on: Arabidopsis seedlings; assay: Root growth inhibition assay; format: in vivo, Arabidopsis thaliana; conditions: five days in liquid medium, 1 μM RALF1, student T-test, n = 6, p<0.001 vs control
Description: Supplementary file pgen.1008847.s003.pdf: S3 Fig Synthetic RALF1 peptide activity. […] Error bars represent standard error of the mean. (PDF) Click here for additional data file.

[10] = tested on: LRX3, LRX4, and LRX5; conditions: vegetative tissues; ref [40],[41]; cited from earlier work
Description: LRX proteins were recently identified as high-affinity binding sites for RALF peptides, with the binding spectrum differing among the LRXs. […] Whether and how the binding of RALFs and FER to LRXs influences the interaction of these proteins remains to be investigated. It is also unknown to what extent the different LRXs are functionally similar and whether they share FER as a common interaction ...

[11] = tested on: LRX4; conditions: ref [15],[41]; cited from earlier work
[12] = tested on: FER; conditions: ref [15],[41]; cited from earlier work

Chain of LRX3 (LRX3^ΔE-FLAG) (Q9T0K5 21-388 limits assumed, stated change not applied): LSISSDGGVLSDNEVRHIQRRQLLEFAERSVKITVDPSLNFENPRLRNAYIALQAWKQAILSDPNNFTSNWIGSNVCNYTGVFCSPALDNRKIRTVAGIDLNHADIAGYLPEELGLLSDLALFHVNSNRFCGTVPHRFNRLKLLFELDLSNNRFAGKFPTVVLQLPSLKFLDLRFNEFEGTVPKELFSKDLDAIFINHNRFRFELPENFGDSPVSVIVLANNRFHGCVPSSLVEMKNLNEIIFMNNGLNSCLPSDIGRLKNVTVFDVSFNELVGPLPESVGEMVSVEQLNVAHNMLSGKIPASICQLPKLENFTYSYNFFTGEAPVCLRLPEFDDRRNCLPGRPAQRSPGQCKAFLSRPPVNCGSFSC
Chain of LRX5 (LRX5^ΔE-FLAG) (Q9SN46 32-405 limits assumed, stated change not applied): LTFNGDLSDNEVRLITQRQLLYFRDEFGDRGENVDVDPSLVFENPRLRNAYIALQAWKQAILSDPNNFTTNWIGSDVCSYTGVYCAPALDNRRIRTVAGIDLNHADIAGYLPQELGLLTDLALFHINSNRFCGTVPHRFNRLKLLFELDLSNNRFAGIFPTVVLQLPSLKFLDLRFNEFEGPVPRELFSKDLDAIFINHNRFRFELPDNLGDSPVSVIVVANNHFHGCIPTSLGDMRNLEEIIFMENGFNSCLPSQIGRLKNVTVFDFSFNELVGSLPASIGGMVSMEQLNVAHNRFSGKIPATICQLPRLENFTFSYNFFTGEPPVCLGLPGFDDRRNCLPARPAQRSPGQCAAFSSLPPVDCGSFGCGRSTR
Chain of LRX4 (LRX4^ΔE-FLAG) (Q9LHF1 26-403 limits assumed, stated change not applied): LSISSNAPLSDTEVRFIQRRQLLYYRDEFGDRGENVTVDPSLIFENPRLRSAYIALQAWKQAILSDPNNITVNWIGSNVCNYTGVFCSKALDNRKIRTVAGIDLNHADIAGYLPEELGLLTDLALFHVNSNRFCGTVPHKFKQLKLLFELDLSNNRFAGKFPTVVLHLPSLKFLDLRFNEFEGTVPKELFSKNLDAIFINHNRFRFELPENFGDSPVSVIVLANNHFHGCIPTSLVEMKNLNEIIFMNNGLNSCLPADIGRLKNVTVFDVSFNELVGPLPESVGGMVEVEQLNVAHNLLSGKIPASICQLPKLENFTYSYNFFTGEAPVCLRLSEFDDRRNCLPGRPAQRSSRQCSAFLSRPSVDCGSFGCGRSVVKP
Chain of LRX1 (LRX1^ΔE-FLAG) (O65375 27-381 limits assumed, stated change not applied): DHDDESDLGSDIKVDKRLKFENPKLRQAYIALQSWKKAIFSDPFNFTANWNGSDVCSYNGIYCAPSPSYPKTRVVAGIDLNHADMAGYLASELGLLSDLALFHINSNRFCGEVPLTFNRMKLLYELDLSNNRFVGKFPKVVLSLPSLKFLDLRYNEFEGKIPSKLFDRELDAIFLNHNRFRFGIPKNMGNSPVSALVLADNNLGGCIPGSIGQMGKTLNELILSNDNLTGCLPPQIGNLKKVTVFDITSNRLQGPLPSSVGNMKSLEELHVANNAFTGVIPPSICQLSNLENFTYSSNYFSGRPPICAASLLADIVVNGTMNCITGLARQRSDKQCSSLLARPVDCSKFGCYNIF

RALF1: in vitro synthesized RALF1 peptide hormone (PHTD peptides); gene At1G02900; expressed as AD-RALF1 in yeast-two-hybrid (ATTKYISYQSLKRNSVPCSRRGASYYNCQNGAQANPYSRGCSKIARCRS; UniProt Q9SRY3 72-120, looked up)
Kd [1]: 4.5 nM
affinity of LRX3 for RALF1, in words [2]: much lower affinity
Kd [3]: 5.5 nM
Kd [4]: 3.5 nM
interaction with LRX1^ΔE [5]: shows binding to RALF1
interaction with LRX1 [6]: yeast cells grew effectively in the presence of the two proteins; also recorded: indicates interaction of the LRX proteins with RALF1
interaction with LRX4 [7]: indicates interaction of the LRX proteins with RALF1
effect on LRX1^ΔE-FER^ECD interaction [8]: does not influence the interaction of LRX1^ΔE with FER^ECD; also recorded: did not affect the interaction between LRX1^ΔE and FER^ECD
root growth inhibition [9]: effectively inhibited root growth of Arabidopsis seedlings; also recorded: significantly inhibited root growth
binding to LRX3, LRX4, and LRX5 [10]: reported to bind
binding to LRX4 [11]: has been shown to bind RALF1
binding to FER [12]: also interacts with FER
